For this experiment, the target named is T1, human 5-HT4(b) receptor (Homo sapiens, UniProt Q13639).
T1 construct: overexpressing the full-length human 5-HT4(b) receptor with an N-terminal FLAG tag; FLAG (N); host or cells: CHO-K1
T1 sequence (Q13639 whole entry): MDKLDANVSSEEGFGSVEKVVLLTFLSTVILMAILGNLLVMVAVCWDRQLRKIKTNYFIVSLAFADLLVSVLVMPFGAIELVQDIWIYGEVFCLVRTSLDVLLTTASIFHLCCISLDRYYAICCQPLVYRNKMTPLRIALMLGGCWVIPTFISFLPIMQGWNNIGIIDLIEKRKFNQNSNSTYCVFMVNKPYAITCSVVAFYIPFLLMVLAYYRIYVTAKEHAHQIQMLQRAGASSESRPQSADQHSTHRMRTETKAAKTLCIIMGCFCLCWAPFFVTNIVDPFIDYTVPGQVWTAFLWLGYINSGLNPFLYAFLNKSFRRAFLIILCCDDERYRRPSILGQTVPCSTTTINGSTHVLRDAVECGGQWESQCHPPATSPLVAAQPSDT
Nature of the experiment: 5-HT4(b) agonist assay (cAMP accumulation). The conditions noted are these: CHO-K1 cells overexpressing full-length human 5-HT4(b) receptor; cAMP accumulation after 30 minutes at room temperature; 1 μM 5-HT as 100% activity. Type of experiment: cell-based. The procedure: One may determine the activity of the compounds of Formula 1 using a variety of methods, including in vitro and in vivo methods. The ability of the example compounds to activate the 5-HT4(b) receptor may be determined using the following assay.
Chinese hamster ovary (CHO-K1) cells overexpressing the full-length human 5-HT4(b) receptor with an N-terminal FLAG tag (Multispan Inc, Hayward, CA) are cultured per the manufacturer's protocol in 1:1 DMEM/F12 (Thermo Fisher, Waltham, MA) with 10% fetal bovine serum (GE Healthcare, Pittsburgh, PA) and 10 μg/mL puromycin (Thermo Fisher, Waltham, MA), and stored in frozen aliquots to be used as assay ready cells. On the day of the assay, cells are removed from frozen storage, washed two times in 1× Kreb's Ringer Buffer (Zenbio, Research Triangle Park, NC), and re-suspended to a concentration of 4×10^6 cells/mL in 1× Kreb's Ringer Buffer. Test compound (50 nL) in 100% DMSO is acoustically dispensed in low volume, white, 384-well polypropylene plates (Corning, Tewksbury, MA), followed by the addition of 4×10^4 cells per well in a total volume of 10 μL. Cells are incubated with test compound for 30 minutes at room temperature in the dark, and cAMP accumulation is measured using the Cisbio HiRange cAMP assay kit (Bedford, MA) per the manufacturer's protocol. Anti-cAMP antibody and d2-cAMP tracer reagents diluted in lysis/detection buffer are incubated in the dark for 1 hour, and results are measured on a Pherastar plate reader (BMG Labtech, Ortenberg, Germany). Data are normalized using 1 μM 5-HT (Sigma Aldrich, St. Louis, MO) as 100% activity, and DMSO alone as 0% activity.
The ability of the example compounds to activate the 5-HT4(b) receptor was evaluated using the assay described in the Biological Activity section. Table 1, below, lists EC50 from the 5-HT4(b) agonist assay for each of the example compounds, where smaller EC50 values represent higher potency.
(Cyclic AMP is a second messenger, typically raised through Gs and lowered through Gi signalling.)
`COc1cc(N)c(Cl)cc1C(=O)N[C@@H]1CCN(CCCCCC(=O)N(C)[C@@H]2CCCN(CCCCCC(=O)NC[C@H](O)[C@@H](O)[C@H](O)[C@H](O)CO)C2)C[C@@H]1OC` [Example 15, 4-amino-5-chloro-2-methoxy-N-((3S,4R)-3-methoxy-1-(6-(methyl((R)-1-(6-oxo-6-(((2S,3R,4R,5R)-2,3,4,5,6-pentahydroxyhexyl)amino)hexyl)piperidin-3-yl)amino)-6-oxohexyl)piperidin-4-yl)benzamide] returned an EC50 of 31 nM.

With `COc1cc(N)c(Cl)cc1C(=O)N[C@@H]1CCN(CCCCCC(=O)NC[C@H](O)[C@@H](O)[C@H](O)[C@H](O)CO)C[C@@H]1OC` [Example 1, 4-amino-5-chloro-2-methoxy-N-((3S,4R)-3-methoxy-1-(6-oxo-6-(((2S,3R,4R,5R)-2,3,4,5,6-pentahydroxyhexyl)amino)hexyl)piperidin-4-yl)benzamide], the response was half-maximal at 19.8 nM (EC50). This EC50 lies about 1.6-fold lower than the previous one.

`COc1cc(N)c(Cl)cc1C(=O)N[C@@H]1CCN(CCCCCC(=O)NC2CCN(CCCCCC(=O)NC[C@H](O)[C@@H](O)[C@H](O)[C@H](O)CO)CC2)C[C@@H]1OC` [Example 9, 4-amino-5-chloro-2-methoxy-N-((3S,4R)-3-methoxy-1-(6-oxo-6-((1-(6-oxo-6-(((2S,3R,4R,5R)-2,3,4,5,6-pentahydroxyhexyl)amino)hexyl)piperidinyl)amino)hexyl)piperidin-4-yl)benzamide] came in with a 50% effective concentration (EC50) of 8.1 nM. Against the preceding compound, the EC50 is about 2.4-fold lower.

Take `CO[C@H]1CN(CCCCCC(=O)NCCCCCCCC(=O)NC[C@H](O)[C@@H](O)[C@H](O)[C@H](O)CO)CC[C@H]1NC(=O)c1cc(Cl)c(N)c2c1OCC2` [Example 44, 4-amino-5-chloro-N-((3S,4R)-3-methoxy-1-(6-oxo-6-((8-oxo-8-(((2S,3R,4R,5R)-2,3,4,5,6-pentahydroxyhexyl)amino)octyl)amino)hexyl)piperidin-4-yl)-2,3-dihydrobenzofuran-7-carboxamide]: the concentration giving a half-maximal response (EC50) is 3.1 nM. This EC50 lies about 2.6-fold lower than the previous one.

Consider `Nc1c(Cl)cc(C(=O)NCC2CCN(CC3CCN(C(=O)CCCCCCCCCCC(=O)NC[C@H](O)[C@@H](O)[C@H](O)[C@H](O)CO)CC3)CC2)c2c1CCO2` [Example 38, 4-amino-5-chloro-N-((1-((1-(12-oxo-12-(((2S,3R,4R,5R)-2,3,4,5,6-pentahydroxyhexyl)amino)dodecanoyl)piperidin-4-yl)methyl)piperidin-4-yl)methyl)-2,3-dihydrobenzofuran-7-carboxamide], for which the EC50 is 1.2 nM. This EC50 is about 2.6-fold lower than that of the compound before.

Compound `COc1cc(N)c(Cl)cc1C(=O)N[C@@H]1CCN(CCCCCC(=O)N(C)C2CCN(CCCCCCCC(=O)NC[C@H](O)[C@@H](O)[C@H](O)[C@H](O)CO)CC2)C[C@@H]1OC` [Example 10, 4-amino-5-chloro-2-methoxy-N-((3S,4R)-3-methoxy-1-(6-(methyl(1-(8-oxo-8-(((2S,3R,4R,5R)-2,3,4,5,6-pentahydroxyhexyl)amino)octyl)piperidin-4-yl)amino)-6-oxohexyl)piperidin-4-yl)benzamide] returned a half-maximal effective concentration (EC50) of 26.1 nM. This EC50 is about 22-fold higher than that of the compound before.

In turn, `COc1cc(N)c(Cl)cc1C(=O)N[C@@H]1CCN(CCCCCC(=O)NCCCCCCCC(=O)NC[C@H](O)[C@@H](O)[C@H](O)[C@H](O)CO)C[C@@H]1OC` [Example 2, 4-amino-5-chloro-2-methoxy-N-((3S,4R)-3-methoxy-1-(6-oxo-6-((8-oxo-8-(((2S,3R,4R,5R)-2,3,4,5,6-pentahydroxyhexyl)amino)octyl)amino)hexyl)piperidin-4-yl)benzamide] displayed an EC50 of 21.4 nM.

With `COc1cc(N)c(Cl)cc1C(=O)N[C@@H]1CCN(CCCCCC(=O)NC2CCN(CCCCCCCC(=O)NC[C@H](O)[C@@H](O)[C@H](O)[C@H](O)CO)CC2)C[C@@H]1OC` [Example 8, 4-amino-5-chloro-2-methoxy-N-((3S,4R)-3-methoxy-1-(6-oxo-6-((1-(8-oxo-8-(((2S,3R,4R,5R)-2,3,4,5,6-pentahydroxyhexyl)amino)octyl)piperidin-4-yl)amino)hexyl)piperidin-4-yl)benzamide], the EC50 is 9.6 nM.

Regarding `COc1cc(N)c(Cl)cc1C(=O)N[C@@H]1CCN(CCCCCC(=O)N[C@@H]2CCCN(CCCCCC(=O)NC[C@H](O)[C@@H](O)[C@H](O)[C@H](O)CO)C2)C[C@@H]1OC` [Example 13, 4-amino-5-chloro-2-methoxy-N-((3S,4R)-3-methoxy-1-(6-oxo-6-(((R)-1-(6-oxo-6-(((2S,3R,4R,5R)-2,3,4,5,6-pentahydroxyhexyl)amino)hexyl)piperidin-3-yl)amino)hexyl)piperidin-4-yl)benzamide], the EC50 amounted to 12.9 nM.

As to `Nc1c(Cl)cc(C(=O)NCC2CCN(CC3CCN(CCCCCCCCCCC(=O)NC[C@H](O)[C@@H](O)[C@H](O)[C@H](O)CO)CC3)CC2)c2c1CCO2` [Example 36, 4-amino-5-chloro-N-((1-((1-(11-oxo-11-(((2S,3R,4R,5R)-2,3,4,5,6-pentahydroxyhexyl)amino)undecyl)piperidin-4-yl)methyl)piperidin-4-yl)methyl)-2,3-dihydrobenzofuran-7-carboxamide], the midpoint of the response, the EC50, lay at 2.5 nM. Compared with the last compound, the EC50 is about 5.2-fold lower.

Regarding `CO[C@H]1CN(CCCCCC(=O)NCCCCCC(=O)NC[C@H](O)[C@@H](O)[C@H](O)[C@H](O)CO)CC[C@H]1NC(=O)c1cc(Cl)c(N)c2c1OCC2` [Example 45, 4-amino-5-chloro-N-((3S,4R)-3-methoxy-1-(6-oxo-6-((6-oxo-6-(((2S,3R,4R,5R)-2,3,4,5,6-pentahydroxyhexyl)amino)hexyl)amino)hexyl)piperidin-4-yl)-2,3-dihydrobenzofuran-7-carboxamide], the midpoint of the response, the EC50, lay at 12.1 nM.

The compound `COc1cc(N)c(Cl)cc1C(=O)N[C@@H]1CCN(CCCCCC(=O)NCCCCCCCC(=O)NCCS(=O)(=O)O)C[C@@H]1OC` [Example 23, 2-(8-(6-((3S,4R)-4-(4-amino-5-chloro-2-methoxybenzamido)-3-methoxypiperidin-1-yl)hexanamido)octanamido)ethane-1-sulfonic acid] had an EC50 of 56.5 nM.

Regarding `Nc1c(Cl)cc(C(=O)NC2CCN(CCCCCC(=O)NCCCCCC(=O)NC[C@H](O)[C@@H](O)[C@H](O)[C@H](O)CO)CC2)c2c1CCO2` [Example 33, 4-amino-5-chloro-N-(1-(6-oxo-6-((6-oxo-6-(((2S,3R,4R,5R)-2,3,4,5,6-pentahydroxyhexyl)amino)hexyl)amino)hexyl)piperidin-4-yl)-2,3-dihydrobenzofuran-7-carboxamide], the EC50 worked out at 12.6 nM.

As to `Nc1c(Cl)cc(C(=O)NCC2CCN(CC3CCN(C(=O)CCCCCCCCC(=O)NC[C@H](O)[C@@H](O)[C@H](O)[C@H](O)CO)CC3)CC2)c2c1CCO2` [Example 39, 4-amino-5-chloro-N-((1-((1-(10-oxo-10-(((2S,3R,4R,5R)-2,3,4,5,6-pentahydroxyhexyl)amino)decanoyl)piperidin-4-yl)methyl)piperidin-4-yl)methyl)-2,3-dihydrobenzofuran-7-carboxamide], the concentration giving a half-maximal response (EC50) worked out at 1.2 nM.

Regarding `COc1cc(N)c(Cl)cc1C(=O)N[C@@H]1CCN(CCCCCC(=O)NCCCCCCCC(=O)N(CCCN(C)C)CCS(=O)(=O)O)C[C@@H]1OC` [Example 27, 2-(8-(6-((3S,4R)-4-(4-amino-5-chloro-2-methoxybenzamido)methoxypiperidin-1-yl)hexanamido)-N-(3-(dimethylamino)propyl)octanamido)ethane-1-sulfonic acid], the EC50 was 30.3 nM. This EC50 lies about 25-fold higher than the previous one.

In general, EC50 refers to the concentration at which the effect is half-maximal.

Values taken from US12653815B2, “Luminally-acting N-(piperidin-4-yl)benzamide derivatives” (Takeda Pharmaceutical Company Limited, priority 2020, dated 2026).
